According to ChEMBL document CHEMBL1143417, “Roles of P-glycoprotein, Bcrp, and Mrp2 in biliary excretion of spiramycin in mice” (Antimicrob Agents Chemother, 2007):

Key:
[1] = Drug level in Bcrp gene knockout C57BL/6 mouse bile at 1 uM administered through single-pass liver perfusion for 15 mins; assay type: ADME, tissue-based; settings: in vivo, 0.25 h
[2] = system: Mus musculus; experiment: Drug excretion in Bcrp gene knockout C57BL/6 mouse assessed as drug recovery in outflow perfusate and bile at 1 uM administered through single-pass liver perfusion for 15 mins; assay type: ADME, organism-based; settings: in vivo, 0.25 h
[3] = Drug level in Bcrp gene knockout C57BL/6 mouse bile at 1 uM administered through single-pass liver perfusion for 15 mins coinfused with Pgp and Bcrp inhibitor GW918; assay type: ADME, tissue-based; settings: in vivo, 0.25 h
[4] = Drug excretion in C57BL/6 mouse assessed as drug recovery in bile at 1 uM administered through single-pass liver perfusion for 15 mins relative to total liver drug content at the end of infusion; assay type: ADME, tissue-based; settings: in vivo, 0.25 h
[5] = system: Mus musculus; experiment: Drug excretion in C57BL/6 mouse assessed as drug recovery in outflow perfusate at 1 uM administered through single-pass liver perfusion for 15 mins coinfused with Pgp and Bcrp inhibitor GW918 relative to total liver drug content at the end of infusion; assay type: ADME, organism-based; design: scale not given: the % may be the effect or the level left; settings: in vivo, 0.25 h
[6] = system: Mus musculus; experiment: Hepatic uptake clearance in Mrp2 gene knockout C57BL/6 mouse at 1 uM administered through single-pass liver perfusion for 15 mins; assay type: ADME, organism-based; settings: in vivo, 0.25 h
[7] = Drug excretion in Mrp2 gene knockout C57BL/6 mouse assessed as drug recovery in bile at 1 uM administered through single-pass liver perfusion for 15 mins coinfused with Pgp and Bcrp inhibitor GW918 relative to total liver drug content at the end of infusion; assay type: ADME, tissue-based; design: scale not given: the % may be the effect or the level left; settings: in vivo, 0.25 h
[8] = system: Mus musculus; experiment: Drug excretion in Bcrp gene knockout C57BL/6 mouse assessed as drug recovery in outflow perfusate at 1 uM administered through single-pass liver perfusion for 15 mins relative to total liver drug content at the end of infusion; assay type: ADME, organism-based; settings: in vivo, 0.25 h
[9] = Drug excretion in C57BL/6 mouse assessed as drug recovery in bile at 1 uM administered through single-pass liver perfusion for 15 mins coinfused with Pgp and Bcrp inhibitor GW918 relative to total liver drug content at the end of infusion; assay type: ADME, tissue-based; design: scale not given: the % may be the effect or the level left; settings: in vivo, 0.25 h
[10] = system: Mus musculus; experiment: Hepatic uptake clearance in Mrp2 gene knockout C57BL/6 mouse at 1 uM administered through single-pass liver perfusion for 15 mins coinfused with Pgp and Bcrp inhibitor GW918; assay type: ADME, organism-based; settings: in vivo, 0.25 h
[11] = system: Mus musculus; experiment: Drug excretion in Bcrp gene knockout C57BL/6 mouse assessed as drug recovery in outflow perfusate at 1 uM administered through single-pass liver perfusion for 15 mins coinfused with Pgp and Bcrp inhibitor GW918 relative to total liver drug content at the end of infusion; assay type: ADME, organism-based; design: scale not given: the % may be the effect or the level left; settings: in vivo, 0.25 h
[12] = Drug excretion in Mrp2 gene knockout C57BL/6 mouse assessed as drug recovery in bile at 1 uM administered through single-pass liver perfusion for 15 mins relative to total liver drug content at the end of infusion; assay type: ADME, tissue-based; settings: in vivo, 0.25 h
[13] = Drug excretion in Bcrp gene knockout C57BL/6 mouse assessed as drug recovery in bile at 1 uM administered through single-pass liver perfusion for 15 mins relative to total liver drug content at the end of infusion; assay type: ADME, tissue-based; settings: in vivo, 0.25 h
[14] = system: Mus musculus; experiment: Drug excretion in C57BL/6 mouse assessed as drug recovery in outflow perfusate and bile at 1 uM administered through single-pass liver perfusion for 15 mins; assay type: ADME, organism-based; settings: in vivo, other, 0.25 h
[15] = Drug level in Mrp2 gene knockout C57BL/6 mouse bile at 1 uM administered through single-pass liver perfusion for 15 mins coinfused with Pgp and Bcrp inhibitor GW918; assay type: ADME, tissue-based; settings: in vivo, 0.25 h
[16] = Drug level in Mrp2 gene knockout C57BL/6 mouse bile at 1 uM administered through single-pass liver perfusion for 15 mins; assay type: ADME, tissue-based; settings: in vivo, 0.25 h
[17] = system: Mus musculus; experiment: Drug excretion in Mrp2 gene knockout C57BL/6 mouse assessed as drug recovery in outflow perfusate and bile at 1 uM administered through single-pass liver perfusion for 15 mins; assay type: ADME, organism-based; settings: in vivo, 0.25 h
[18] = system: Mus musculus; experiment: Drug excretion in Mrp2 gene knockout C57BL/6 mouse assessed as drug recovery in outflow perfusate at 1 uM administered through single-pass liver perfusion for 15 mins coinfused with Pgp and Bcrp inhibitor GW918 relative to total liver drug content at the end of infusion; assay type: ADME, organism-based; design: scale not given: the % may be the effect or the level left; settings: in vivo, 0.25 h
[19] = Drug level in C57BL/6 mouse bile at 1 uM administered through single-pass liver perfusion for 15 mins coinfused with Pgp and Bcrp inhibitor GW918; assay type: ADME, tissue-based; settings: in vivo, 0.25 h
[20] = system: Mus musculus; experiment: Hepatic uptake clearance in Bcrp gene knockout C57BL/6 mouse at 1 uM administered through single-pass liver perfusion for 15 mins; assay type: ADME, organism-based; settings: in vivo, 0.25 h
[21] = system: Mus musculus; experiment: Drug excretion in C57BL/6 mouse assessed as drug recovery in outflow perfusate at 1 uM administered through single-pass liver perfusion for 15 mins relative to total liver drug content at the end of infusion; assay type: ADME, organism-based; settings: in vivo, 0.25 h
[22] = system: Mus musculus; experiment: Drug excretion in Mrp2 gene knockout C57BL/6 mouse assessed as drug recovery in outflow perfusate at 1 uM administered through single-pass liver perfusion for 15 mins relative to total liver drug content at the end of infusion; assay type: ADME, organism-based; settings: in vivo, 0.25 h
[23] = system: Mus musculus; experiment: Hepatic uptake clearance in C57BL/6 mouse at 1 uM administered through single-pass liver perfusion for 15 mins coinfused with Pgp and Bcrp inhibitor GW918; assay type: ADME, organism-based; settings: in vivo, 0.25 h
[24] = Drug level in C57BL/6 mouse bile at 1 uM administered through single-pass liver perfusion for 15 mins; assay type: ADME, tissue-based; settings: in vivo, 0.25 h
[25] = system: Mus musculus; experiment: Hepatic uptake clearance in C57BL/6 mouse at 1 uM administered through single-pass liver perfusion for 15 mins; assay type: ADME, organism-based; settings: in vivo, 0.25 h
[26] = Drug excretion in Bcrp gene knockout C57BL/6 mouse assessed as drug recovery in bile at 1 uM administered through single-pass liver perfusion for 15 mins coinfused with Pgp and Bcrp inhibitor GW918 relative to total liver drug content at the end of infusion; assay type: ADME, tissue-based; design: scale not given: the % may be the effect or the level left; settings: in vivo, 0.25 h
[27] = system: Mus musculus; experiment: Hepatic uptake clearance in Bcrp gene knockout C57BL/6 mouse at 1 uM administered through single-pass liver perfusion for 15 mins coinfused with Pgp and Bcrp inhibitor GW918; assay type: ADME, organism-based; settings: in vivo, 0.25 h

Drug uptake [1]: 19.1 µg/mL
Activity [2]: 86.5 %ID
Drug uptake [3]: 14 µg/mL
Activity [4]: 9.15%
Activity [5]: 34.1%
CLup [6]: 5.15 mL/min
Activity [7]: 0.58%
Activity [8]: 28.1%
Activity [9]: 4.36%
CLup [10]: 4.7 mL/min
Activity [11]: 25.2%
Activity [12]: 1.21%
Activity [13]: 14.1%
Activity [14]: 90.5 %ID
Drug uptake [15]: 1.77 µg/mL
Drug uptake [16]: 3.45 µg/mL
Activity [17]: 82.4 %ID
Activity [18]: 24%
Drug uptake [19]: 7.82 µg/mL
CLup [20]: 4.55 mL/min
Activity [21]: 32.5%
Activity [22]: 29.5%
CLup [23]: 4.64 mL/min
Drug uptake [24]: 8.65 µg/mL
CLup [25]: 4.63 mL/min
Activity [26]: 8.28%
CLup [27]: 5.03 mL/min
Sequence: SPIRAMYCIN
